Here are results for 99 molecules from ChEMBL document CHEMBL3507680, “University of Dundee, Gates Library screen for HepG2 cell viability”.

The structures appear in SMILES notation.

This data set is described as follows: Human HepG2 cell viability assay in 384 well format. As to conditions: HepG2 cells, read-out: Inhibition. Also on record: dose 125 nL, time 70.5 hour; cytotoxicity at 70.5 h: concentration not given beside the values. Type of data set: toxicity, cell-based.
For the molecule `O=C(c1ccc(N2CCCC2)nn1)N1CCCc2cc(F)c(F)cc21`, the cytotoxicity at 70.5 h is -1.17%.

Regarding `Cc1nc(C2CCCN2C(=O)CCOCc2ccccc2)no1` (centres undefined), the cytotoxicity at 70.5 h was -8.94%.

Regarding `COc1ccccc1OCCCN1CCNC1=O`, the cytotoxicity at 70.5 h was -8.47%.

In the case of `CN(C(=O)c1ccccc1F)[C@@H]1CC[C@@H](O)[C@@H]1O`, the cytotoxicity at 70.5 h is -5.24%.

With `CCC1COCCN1C(=O)CNC(=O)c1ccoc1C` (centres undefined), the cytotoxicity at 70.5 h was -5.54%.

Take `Cc1ccccc1SC1CCN(C(=O)C2CNC(=O)N2)CC1` (centres undefined): the cytotoxicity at 70.5 h worked out at 2.9%.

Take `N#CC1(NC(=O)c2ccc(F)cc2OC(F)F)CCOCC1`: the cytotoxicity at 70.5 h was -10.6%.

Take `CSc1ccc(NC(=O)Cc2cccc(O)c2)nc1`: the cytotoxicity at 70.5 h is -20.9%.

For `COC(=O)NCCCC(=O)NCC1(c2cccc(Cl)c2)CC1`, the cytotoxicity at 70.5 h was determined as 20.6%.

For `Cc1c[nH]nc1C1CCCN(C(=O)c2c(C)noc2C)C1` (centres undefined), the cytotoxicity at 70.5 h was -1.16%.

`CCOc1ccc(NC2CCN(C)C2=O)cn1` (centres undefined): the cytotoxicity at 70.5 h was -3.61%.

As to `CCCS(=O)(=O)NCc1cccnc1Oc1ccc(C)nc1`, the cytotoxicity at 70.5 h was -0.632%.

For `CC(O)CN1CCC(CN(C)Cc2ccc(C#N)cc2)CC1` (centres undefined), the cytotoxicity at 70.5 h was -11%.

With `COc1cccc2c1N(C(=O)c1ccc(C)nc1)CCC2`, the cytotoxicity at 70.5 h was determined as 4.1%.

As for `Cc1ccc2c(n1)N(Cc1ccncc1)CCN(S(C)(=O)=O)C2`, the cytotoxicity at 70.5 h is -10%.

Take `N#CC(NC(=O)c1cccc2c1OCCO2)c1ccc(F)cc1F` (centres undefined): the cytotoxicity at 70.5 h is -4.12%.

On to `CC(C)CN(C)Cc1nc2c(cnn2C)c(=O)[nH]1`, for which the cytotoxicity at 70.5 h was found to be 12.1%.

With `CN(Cc1cnccn1)S(=O)(=O)N1CCCC1c1ccco1` (centres undefined), the cytotoxicity at 70.5 h is 1.01%.

For the molecule `O=C(NCC1CC1)[C@H]1C[C@@H]2[C@@H](C1)OCCN2Cc1cccnc1`, the cytotoxicity at 70.5 h worked out at 25%.

`O=C(c1ccccn1)N1CCC(c2nc(O)cc(-c3ccncc3)n2)C1` (centres undefined): the cytotoxicity at 70.5 h is -5.15%.

With `Cc1cnn(CC2CN(CC(=O)N3CCc4ccccc43)CCO2)c1` (centres undefined), the cytotoxicity at 70.5 h is -10.9%.

In the case of `Cc1cccc(NC(=O)N2CCC3(CCC(C(=O)N(C)C)O3)CC2)c1` (centres undefined), the cytotoxicity at 70.5 h is -11.4%.

As for `Cc1ncsc1CN1C[C@@H]2CN(S(C)(=O)=O)CCO[C@@H]2C1`, the cytotoxicity at 70.5 h is -7.53%.

Regarding `COc1ccc2c(c1)C(C(=O)NCCN1CCOC1=O)CC(=O)N2` (centres undefined), the cytotoxicity at 70.5 h is -4.48%.

Consider `O=C(Nc1cccnc1)C1CCN(c2cc(-n3ccnc3)ncn2)CC1`, for which the cytotoxicity at 70.5 h is -5.59%.

For the molecule `CCN1CCN(c2ccc(CNC(=O)c3sccc3C)cn2)CC1`, the cytotoxicity at 70.5 h is -9.08%.

On to `O=C(NCCN1CCOCC1)c1ccn(-c2ccc3ccccn23)n1`, for which the cytotoxicity at 70.5 h was -1.69%.

As to `Cc1ncc(CN(C)Cn2nc(-c3ccccc3)oc2=O)s1`, the cytotoxicity at 70.5 h is -13.1%.

With `CC(C)(C)C(O)CN1CCN(Cc2cccc(C#N)c2)CC1` (centres undefined), the cytotoxicity at 70.5 h was 14.7%.

`O=C(NCc1nncn1C1CC1)c1cccnc1Oc1ccccc1`: the cytotoxicity at 70.5 h is -0.0708%.

On to `O=C(NCCc1nnc2n1CCC2)NCC1(c2ccccc2)CC1`, for which the cytotoxicity at 70.5 h stood at 14%.

For `CN(CCCc1cnn(C)c1)Cc1cc2n(n1)CCCNC2`, the cytotoxicity at 70.5 h was -14.1%.

For the molecule `CCc1ccccc1C(=O)NS(=O)(=O)CCCC#N`, the cytotoxicity at 70.5 h came out at 10.5%.

In the case of `COc1cccc(CN2CC(=O)N(c3ccccc3C)CC2C)c1OC` (centres undefined), the cytotoxicity at 70.5 h is -6.78%.

`O=C(CC1CCN(CCc2ccccc2)CC1)NC1CCOCC1`: the cytotoxicity at 70.5 h is -1.43%.

As for `CC(C)Nc1ncccc1C(=O)NCc1ncc[nH]1`, the cytotoxicity at 70.5 h is -1.28%.

In the case of `CCC(CO)N(Cc1cccc(-n2cccn2)c1)Cc1ccccn1` (centres undefined), the cytotoxicity at 70.5 h was found to be 8.06%.

Turning to `Cc1cnc(N2CCC3(CCCCN3C)C2)nc1` (centres undefined), the cytotoxicity at 70.5 h is -7.87%.

Take `Cc1ccc(N2CCCc3sc(C(=O)NCC4CCCO4)nc32)nn1` (centres undefined): the cytotoxicity at 70.5 h is -8.45%.

For `Cc1noc([C@H]2C[C@@H]3CCN(C(=O)c4cccn4C)C[C@H]3O2)n1`, the cytotoxicity at 70.5 h is -3.46%.

As for `O=C(NCCn1nc(-n2cncn2)ccc1=O)c1ccsc1`, the cytotoxicity at 70.5 h was -4.55%.

With `c1ccc(-n2ccc(CN3CCCC3Cn3cncn3)n2)cc1` (centres undefined), the cytotoxicity at 70.5 h is -3.62%.

In the case of `CC(C)N1CCOC(CC(=O)N2CC(c3ccncc3)C2)C1` (centres undefined), the cytotoxicity at 70.5 h is -2.68%.

As to `O=C(NCCN1CCNCC1)c1c(O)c2ccccc2[nH]c1=O`, the cytotoxicity at 70.5 h was found to be 36.3%.

For `Cn1cc(CN2CC[C@@H](NS(C)(=O)=O)[C@@H]2Cc2cccnc2)cn1`, the cytotoxicity at 70.5 h was -12.3%.

`Cc1n[nH]cc1CNC1CCN(c2ccc(F)cc2)CC1`: the cytotoxicity at 70.5 h is -8.94%.

Regarding `O=C(Cc1ccccn1)N1C[C@H]2CN(Cc3ccccn3)C[C@H]2C1`, the cytotoxicity at 70.5 h was -10%.

Consider `CC(=O)N[C@@H]1C[C@H](c2ccc(OCCO)cc2)OC2(CCOCC2)C1`, for which the cytotoxicity at 70.5 h came out at 7.41%.

For the molecule `CCOc1ncccc1NC(=O)N1CCOCC1C` (centres undefined), the cytotoxicity at 70.5 h is -5.63%.

Turning to `COc1ccc(-n2cnnc2SCC(=O)NC(C)C)cn1`, the cytotoxicity at 70.5 h was -3.19%.

As for `O=C(CCN1CCCCC1)Nc1c2c(cc3c1CCC3)CCC2`, the cytotoxicity at 70.5 h is -1.77%.

Take `O=C(NC1CC1)N1Cc2[nH]nc(COc3cccnc3)c2C1`: the cytotoxicity at 70.5 h was -6.87%.

Regarding `Cc1ccc(=O)n(Cc2csc(N(C)C3CC3)n2)n1`, the cytotoxicity at 70.5 h was -10.2%.

For `O=C(c1cnc2c(cnn2C2CCCC2)c1)N1CCCSCC1`, the cytotoxicity at 70.5 h was -6.43%.

As to `Cc1cnn(C2CN(CCCOc3ccc(C#N)cc3)C2)c1`, the cytotoxicity at 70.5 h is -2.39%.

Consider `CS(=O)(=O)NCc1ncn2c1CN(C(=O)CC1CCCC1)CCC2`, for which the cytotoxicity at 70.5 h is -5.42%.

On to `Cc1cccc(N2CCOCC3(C2)CN(c2cccnc2)C(=O)CO3)n1` (centres undefined), for which the cytotoxicity at 70.5 h is -4.82%.

Turning to `O=c1cc(N2CCCCC2)cnn1Cc1noc(C2CCCO2)n1` (centres undefined), the cytotoxicity at 70.5 h is -10.8%.

For `O=C(CC1CCCC1)N1CCC2(CCN2Cc2ccc(F)cc2)C1` (centres undefined), the cytotoxicity at 70.5 h was determined as 1.62%.

Turning to `CCN(CC(=O)Nc1cc(C(C)(C)C)no1)Cc1ccc(Cl)s1`, the cytotoxicity at 70.5 h is -3.4%.

Take `COc1ccc(Cl)cc1CC(=O)NS(=O)(=O)c1ccc(C(N)=O)cc1`: the cytotoxicity at 70.5 h is -3.68%.

Turning to `Cc1c(C(=O)O)oc2ccc(I)cc12`, the cytotoxicity at 70.5 h is -5.09%.

On to `CC(C)CCC(=O)NCC(=O)N1CCCCCC1c1ccco1` (centres undefined), for which the cytotoxicity at 70.5 h was -5.74%.

Consider `CN1CCN(S(=O)(=O)c2ccc(Sc3nccn3C)nc2)CC1`, for which the cytotoxicity at 70.5 h turned out to be 21.6%.

`Cc1ccc(N(C)[C@@H]2CC[C@@H]3CN(C(=O)C4CCOCC4)C[C@@H]32)nn1`: the cytotoxicity at 70.5 h is -6.01%.

`Cn1cc(CN2CC[C@H]3O[C@@H](C(=O)NC4CC4)CC[C@H]32)cn1`: the cytotoxicity at 70.5 h was -1.4%.

In the case of `CC(C)N(CCCNC(=O)C1CC1)S(C)(=O)=O`, the cytotoxicity at 70.5 h was -4.77%.

Turning to `CC(C)c1n[nH]c(C2CN(C(=O)COCC(F)(F)F)CCO2)n1` (centres undefined), the cytotoxicity at 70.5 h is -12.9%.

Regarding `O=C1CO[C@@H]2CN(Cc3ccncc3)C[C@H]2N1Cc1ccncc1`, the cytotoxicity at 70.5 h is -7.94%.

With `COc1ccccc1C(O)CNC(=O)NCc1cccnc1OC` (centres undefined), the cytotoxicity at 70.5 h was found to be 6.04%.

Regarding `CN(C)CCNC(=O)c1cc2n(n1)CCN(C(=O)c1ccc[nH]1)C2`, the cytotoxicity at 70.5 h is -7.1%.

As for `CC(=O)N1CCN(C(=O)NCCCN(C(C)C)S(C)(=O)=O)CC1`, the cytotoxicity at 70.5 h is -8.44%.

Take `CS(=O)(=O)Cc1nc(CN2CCC(C(F)(F)F)CC2)cs1`: the cytotoxicity at 70.5 h was -8.36%.

In the case of `CCCC(NC(=O)c1cc(C)ccc1O)c1nnn[nH]1` (centres undefined), the cytotoxicity at 70.5 h is -10.4%.

Turning to `CC(=O)N1CCCN(C(=O)c2cnc(OC(C)C)c(Cl)c2)CC1`, the cytotoxicity at 70.5 h is -11.9%.

As for `Cc1nn(CC(C)C)c(N(C)C)c1CNCc1ccnn1C`, the cytotoxicity at 70.5 h turned out to be 28.6%.

Take `CNC(=O)c1cn2cc(-c3cccc(Cl)c3)n(CC3CC3)c(=O)c2n1`: the cytotoxicity at 70.5 h is -8.05%.

Regarding `CCc1cnc2c(c1Nc1cccc(OC)c1)c(=O)n(C)c(=O)n2C`, the cytotoxicity at 70.5 h came out at 1.18%.

For the molecule `CC[C@@H]1N(Cc2ccncc2)CCC[C@]12CCC(=O)N2C`, the cytotoxicity at 70.5 h is -20.1%.

For `COCCN1CC2(CCCN(C(=O)NCc3ccccc3)C2)CCC1=O` (centres undefined), the cytotoxicity at 70.5 h was found to be 0.704%.

Consider `O=C(c1cn(-c2cc(N3CCOCC3)ncn2)cn1)N1CCSCC1`, for which the cytotoxicity at 70.5 h was -2%.

With `O=C(c1cncc(Br)c1)N1CCCc2ccc(F)cc21`, the cytotoxicity at 70.5 h is -5.54%.

Consider `O=c1[nH]c2c(c(=O)n1C1CCCCC1)CCC2Nc1ccccn1` (centres undefined), for which the cytotoxicity at 70.5 h was found to be 20.1%.

Turning to `Cc1nc(C2CN(C)CCO2)cc(N2CCC(CO)CC2)n1` (centres undefined), the cytotoxicity at 70.5 h is -4.15%.

Consider `O=S(=O)(Nc1ccccn1)c1cc(Cl)cc2c1OCC2`, for which the cytotoxicity at 70.5 h was 4.53%.

In the case of `Cc1noc(C2CCCN(C(=O)c3cc(Cl)ccc3F)C2)n1` (centres undefined), the cytotoxicity at 70.5 h is -7.27%.

For the molecule `COCCCNc1cc(C)nn2cnnc12`, the cytotoxicity at 70.5 h is -4.69%.

On to `Cn1ccc(-c2cc(C(=O)N3CCOCC3)c3ccccn23)n1`, for which the cytotoxicity at 70.5 h amounted to 3.83%.

For the molecule `CCN1CCc2c(cccc2NC(=O)CN(C)C2CCSC2)C1` (centres undefined), the cytotoxicity at 70.5 h is -3.51%.

Turning to `N#CC1(NC(=O)c2ccc(-c3nc(C4CC4)n[nH]3)cc2)CCC1`, the cytotoxicity at 70.5 h was -16.7%.

As to `CN(CCOCC1CC1)C(=O)Cn1cccc(C(F)(F)F)c1=O`, the cytotoxicity at 70.5 h is -1.06%.

In the case of `Cc1cnn(C(C)C2CC2)c1NC(=O)c1ccc(Cn2cnnn2)cc1` (centres undefined), the cytotoxicity at 70.5 h is -10.2%.

As to `CC(C)CN1CC(C(=O)NCCNc2ncccn2)CC1=O` (centres undefined), the cytotoxicity at 70.5 h is -0.397%.

With `c1cc(-c2cnccn2)cc(-c2ccn(CCCN3CCCCC3)n2)c1`, the cytotoxicity at 70.5 h was -7.3%.

Turning to `COc1ccc(F)cc1CSCC(=O)N(CCC#N)CCC#N`, the cytotoxicity at 70.5 h was -3.2%.

Take `CCN(CC)CCNC(=O)CCc1c(C)nn(-c2ccccc2Br)c1C`: the cytotoxicity at 70.5 h amounted to 8.21%.

`Nc1cc(-c2cccc3ccnn23)ccn1`: the cytotoxicity at 70.5 h is -2.42%.

Take `CCN(C)C(=O)c1cccc(S(=O)(=O)NCCc2nc(C)cc(=O)[nH]2)c1`: the cytotoxicity at 70.5 h is -22.4%.

Consider `CC[C@@H]1N(Cc2cccnc2)CCC[C@]12CCC(=O)N2C`, for which the cytotoxicity at 70.5 h is -12.1%.
